Measured values as given in patent US20100068359A1, “PRESERVATIVE METHOD” (CONOPCO, INC., D/B/A UNILEVER, priority 2008, published 2010).

Experiments:
APRY yeast [1] = assay: APRY yeast challenge in YM broth with equal molar salts; assay type: cell-based, Zygosaccharomyces bailii and/or Zygosaccharomyces rouxii
Method: • 1. The growth media of the Bidlas et al. reference was used (YM broth and stock pH (6.0). (Growth media—YMB, Sabourda, PDB • 2. Three salts (NaCl, KCl, NH4Cl) were added in a increasing level. […] The detailed salt amounts are shown in the Table 7 below. • 3. The target pH for all compositions was 5.5. • 4. The effects on APRY Yeast, instead of pathogens as in Bidlas et al. were studied. • 5. Inhibition was measured by CFUs (colony forming units) • 6. Dramatic increases in APRY yeast levels are observed after more than about two days.

APRY yeast [2] = assay: Challenge study in full fat mayonnaise model, APRY yeast; assay type: cell-based, Zygosaccharomyces bailii and/or Zygosaccharomyces rouxii
From the text: • 1. […] Formula adjustments were made to keep aqueous acetic acid and sugar levels constant, i.e. % active/(% water+% active)×100, i.e., about 1.53% to about 1.54% aqueous acetic acid and about 6.32% to about 6.36% aqueous sugar. • 3. […] Analytical data supported that the per cent replacement targets were met, […] The results of the challenge study over a number of weeks were reported (see Challenge Data in the Tables 3, 4 and 5 below).

SMILES | APRY yeast level in broth (APRY yeast [1]; 0.51 N salt, day 0) | APRY yeast level in broth (APRY yeast [1]; 0.51 N salt, day 1) | APRY yeast level in broth (APRY yeast [1]; 0.51 N salt, day ½) | APRY yeast level in broth (APRY yeast [1]; 1.03 N salt, day 0) | APRY yeast level in broth (APRY yeast [1]; 1.03 N salt, day 1) | APRY yeast level in broth (APRY yeast [1]; 1.03 N salt, day 1½) | APRY yeast level in broth (APRY yeast [1]; 1.03 N salt, day 2) | APRY yeast level in broth (APRY yeast [1]; 1.03 N salt, day ½) | APRY yeast level in broth (APRY yeast [1]; 1.54 N salt, day 0) | APRY yeast level in broth (APRY yeast [1]; 1.54 N salt, day 1) | APRY yeast level in broth (APRY yeast [1]; 1.54 N salt, day 1½) | APRY yeast level in broth (APRY yeast [1]; 1.54 N salt, day 2) | APRY yeast level in broth (APRY yeast [1]; 1.54 N salt, day 5) | APRY yeast level in broth (APRY yeast [1]; 1.54 N salt, day 6) | APRY yeast level in broth (APRY yeast [1]; 1.54 N salt, day ½) | APRY yeast level in broth (APRY yeast [1]; 2.05 N salt, day 0) | APRY yeast level in broth (APRY yeast [1]; 2.05 N salt, day 1) | APRY yeast level in broth (APRY yeast [1]; 2.05 N salt, day 1½) | APRY yeast level in broth (APRY yeast [1]; 2.05 N salt, day 2) | APRY yeast level in broth (APRY yeast [1]; 2.05 N salt, day ½) | further results
N.N.O=P(O)(O)O [DAP, di-ammonium hydrogen phosphate] | 17,600 CFUs | 324,000 CFUs | 8,100 CFUs | 21,000 CFUs | 10,200 CFUs | 24,000 CFUs | 250,000 CFUs | 7,100 CFUs | 6,000 CFUs | 10,300 CFUs | 2,000 CFUs | 6,700 CFUs | 120,900 CFUs | 117,600 CFUs | 13,000 CFUs | 10,000 CFUs | 11,500 CFUs | 6,000 CFUs | 7,100 CFUs | 9,600 CFUs | APRY yeast level in broth (APRY yeast [1]; 0.51 N salt, day 1½): 630,000 CFUs; APRY yeast level in broth (APRY yeast [1]; 1.54 N salt, day 8): 820,000 CFUs; APRY yeast level in broth (APRY yeast [1]; 1.54 N salt, day 11): 570,000 CFUs; APRY yeast level in broth (APRY yeast [1]; 1.54 N salt, day 13): 141,000 CFUs; APRY yeast level in broth (APRY yeast [1]; 1.54 N salt, day 14): 280,000 CFUs; APRY yeast level in broth (APRY yeast [1]; 2.05 N salt, day 5): 980 CFUs; APRY yeast level in broth (APRY yeast [1]; 2.05 N salt, day 6): 5,000 CFUs; APRY yeast level in broth (APRY yeast [1]; 2.05 N salt, day 8): 2,500 CFUs; APRY yeast level in broth (APRY yeast [1]; 2.05 N salt, day 11): 4,000 CFUs; APRY yeast level in broth (APRY yeast [1]; 2.05 N salt, day 13): 1,600 CFUs; APRY yeast level in broth (APRY yeast [1]; 2.05 N salt, day 14): 3,000 CFUs
[Cl-].[K+] [KCl, potassium chloride] | 3,800 CFUs | 280,000 CFUs | 14,200 CFUs | 12,000 CFUs | 78,000 CFUs | 772,000 CFUs | – | 12,300 CFUs | 13,800 CFUs | 11,600 CFUs | 85,000 CFUs | – | – | – | 7,900 CFUs | 7,300 CFUs | 3,300 CFUs | 8,000 CFUs | 68,000 CFUs | 7,900 CFUs | growth of APRY yeast in the broth system (APRY yeast [1]; YM broth, target pH 5.5): does not inhibit the growth of APRY yeast
Cl.N [NH4Cl, ammonium chloride] | 10,200 CFUs | 260,000 CFUs | 11,700 CFUs | 8,100 CFUs | 32,000 CFUs | 14,000 CFUs | 53,000 CFUs | 6,000 CFUs | 10,900 CFUs | 3,100 CFUs | 7,000 CFUs | 39,500 CFUs | 2,200 CFUs | 3,000 CFUs | 7,200 CFUs | 8,900 CFUs | 3,100 CFUs | 10,000 CFUs | 36,100 CFUs | 5,800 CFUs | APRY yeast level in broth (APRY yeast [1]; 0.51 N salt, day 1½): 672,000 CFUs; APRY yeast level in broth (APRY yeast [1]; 1.54 N salt, day 8): 2,900 CFUs; APRY yeast level in broth (APRY yeast [1]; 1.54 N salt, day 11): 4,600 CFUs; APRY yeast level in broth (APRY yeast [1]; 1.54 N salt, day 13): 40,000 CFUs; APRY yeast level in broth (APRY yeast [1]; 1.54 N salt, day 14): 84,000 CFUs; APRY yeast level in broth (APRY yeast [1]; 2.05 N salt, day 5): 700 CFUs; APRY yeast level in broth (APRY yeast [1]; 2.05 N salt, day 6): 700 CFUs; APRY yeast level in broth (APRY yeast [1]; 2.05 N salt, day 8): 1,600 CFUs; APRY yeast level in broth (APRY yeast [1]; 2.05 N salt, day 11): 400 CFUs; APRY yeast level in broth (APRY yeast [1]; 2.05 N salt, day 13): 600 CFUs; APRY yeast level in broth (APRY yeast [1]; 2.05 N salt, day 14): 800 CFUs; Observation: APRY outgrowth / stability (APRY yeast [2]): faster APRY die-off
[Cl-].[Na+] [NaCl, sodium chloride] | 13,100 CFUs | 440,000 CFUs | 4,300 CFUs | 10,000 CFUs | 3,200 CFUs | 7,000 CFUs | 29,000 CFUs | 6,900 CFUs | 13,200 CFUs | 2,300 CFUs | 8,000 CFUs | 3,900 CFUs | 2,740 CFUs | 1,840 CFUs | 3,800 CFUs | 9,800 CFUs | 2,700 CFUs | 7,000 CFUs | 4,500 CFUs | 5,100 CFUs | APRY yeast level in broth (APRY yeast [1]; 1.54 N salt, day 8): 3,600 CFUs; APRY yeast level in broth (APRY yeast [1]; 1.54 N salt, day 11): 3,300 CFUs; APRY yeast level in broth (APRY yeast [1]; 1.54 N salt, day 13): 2,900 CFUs; APRY yeast level in broth (APRY yeast [1]; 1.54 N salt, day 14): 3,500 CFUs; APRY yeast level in broth (APRY yeast [1]; 2.05 N salt, day 5): 1,730 CFUs; APRY yeast level in broth (APRY yeast [1]; 2.05 N salt, day 6): 2,110 CFUs; APRY yeast level in broth (APRY yeast [1]; 2.05 N salt, day 8): 1,600 CFUs; APRY yeast level in broth (APRY yeast [1]; 2.05 N salt, day 11): 700 CFUs; APRY yeast level in broth (APRY yeast [1]; 2.05 N salt, day 13): 700 CFUs; APRY yeast level in broth (APRY yeast [1]; 2.05 N salt, day 14): 800 CFUs
[Ca+2].[Cl-].[Cl-] [calcium chloride] | – | – | – | – | – | – | – | – | – | – | – | – | – | – | – | – | – | – | – | – | Z. bailii outgrowth (Z. bailii): enhance Z. bailii outgrowth
[Cl-].[Cl-].[Mg+2] [magnesium chloride] | – | – | – | – | – | – | – | – | – | – | – | – | – | – | – | – | – | – | – | – | Z. bailii outgrowth (Z. bailii): enhance Z. bailii outgrowth
